{"source": "patent US20210253651A1", "about": "“METHOD FOR PRODUCING ORGANIC COMPOUND-ENCAPSULATING FERRITIN” (Ajinomoto Co., Inc., priority 2018, published 2021)", "key": {"FTH ferritin": {"target": "T1, FTH ferritin (Homo sapiens, UniProt P02794)", "T1 construct": "made in house; host or cells: Escherichia coli BL21 (DE3), plasmid pET20-FTH", "T1 sequence (P02794 whole entry)": "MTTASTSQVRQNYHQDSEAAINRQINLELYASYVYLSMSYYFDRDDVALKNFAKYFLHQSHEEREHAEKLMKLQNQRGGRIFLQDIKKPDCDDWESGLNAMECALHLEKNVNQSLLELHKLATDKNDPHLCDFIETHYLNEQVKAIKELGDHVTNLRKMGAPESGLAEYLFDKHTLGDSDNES", "test": "one-step process incorporation of DOX into FTH ferritin", "assay_type": "physicochemical", "conditions": "for incorporation efficiency of the reagent: FTH ferritin 1 mg/mL; for number of molecules of DOX incorporated into one molecule of FTH ferritin: presumed, average", "protocol": "(§1) In this reaction, an acetate buffer was used for pH 3, 4, 5 and 6, while Tris-HCl buffer was used for pH 7, 8 and 9. After the standing, 0.5 mL of water was added to the resulting solution. After the resulting solution was centrifuged (at 15,000 rpm for one minute), the supernatant was injected into a desalting column PD-10 (Sephadex G-25 filled product, GE Healthcare Inc.) equilibrated with 10 mM Tris-HCl buffer (pH 8) to separate the protein from a reagent that was not encapsulated. Whole amount (3.5 mL) of the resulting solution was concentrated to 0.1 mL by centrifugal ultrafiltration using Vivaspin 20-100K (GE Healthcare Inc.), and then absorbances at 280 nm and 480 nm were measured using spectrophotometer (DU-800, Beckman Coulter Inc.).\nas §1, with “After” for “In this reaction, an acetate buffer was used for pH 3, 4, 5 and 6, while Tris-HCl buffer was used for pH 7, 8 and 9. After”, “into the” for “into a”\nAfter the standing, 0.5 mL water was added to the resulting solution. After the resulting solution was centrifuged (at 15,000 rpm for one minute), the supernatant was injected into the desalting column PD-10 (Sephadex G-25 filled product, GE Healthcare Inc.) equilibrated with 10 mM Tris-HCl buffer (pH 8) to separate the protein from a reagent that was not encapsulated. Whole amount (3.5 mL) of the resulting solution was concentrated by centrifugal ultrafiltration using Vivaspin 20-100K (GE Healthcare Inc.). Glycine-HCl buffer (pH 2.3) was added to the resulting solution to achieve a final concentration of 100 mM, then a volume was controlled to 0.2 mL. […] The absorbance at 480 nm was measured using spectrophotometer (DU-800, Beckman Coulter Inc.) for the resulting solution in order to determine the concentration of DOX. The concentration of protein in the solution was determined using the protein assay CBB solution (Nacalai Tesque, Inc.) as well as bovine albumin as a standard.\nAfter the standing, 0.5 mL water was added to the resulting solution. After the resulting solution was centrifuged (at 15,000 rpm for one minute), the supernatant was injected into the desalting column PD-10 (Sephadex G-25 filled product, GE Healthcare Inc.) equilibrated with 10 mM Tris-HCl buffer (pH 8) to separate the protein from a reagent that was not encapsulated. Whole amount (3.5 mL) of the resulting solution was concentrated by centrifugal ultrafiltration using Vivaspin 20-100K (GE Healthcare Inc.). Glycine-HCl buffer (pH 2.3) was added to the resulting solution to achieve a final concentration of 100 mM, then a volume was controlled to 0.5 mL. The absorbance at 480 nm was measured using spectrophotometer (DU-800, Beckman Coulter Inc.) for the resulting solution in order to determine the concentration of DOX. The concentration of protein in the solution was determined using the protein assay CBB solution (Nacalai Tesque, Inc.) as well as bovine albumin as a standard."}, "HER2a-FTH ferritin": {"target": "T2, HER2a-FTH ferritin (Homo sapiens, UniProt P02794)", "T2 construct": "pET20-FTH carrying a DNA encoding a human-derived ferritin H chain monomer as a template; made in house; host or cells: Escherichia coli BL21 (DE3), plasmid pET20-HER2a-FTH", "T2 sequence (P02794 with tags, fused parts or gaps limits assumed)": "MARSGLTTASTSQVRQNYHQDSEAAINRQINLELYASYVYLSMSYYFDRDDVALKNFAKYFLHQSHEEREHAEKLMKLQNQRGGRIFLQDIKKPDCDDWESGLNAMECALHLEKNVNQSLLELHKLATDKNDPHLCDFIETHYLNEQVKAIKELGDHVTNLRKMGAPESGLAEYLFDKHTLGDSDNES", "test": "one-step incorporation of DOX into HER2a-FTH ferritin", "assay_type": "physicochemical", "conditions": "pH 9, 50° C., 60 minutes, DOX 0.3 mg/L", "protocol": "First, PCR was carried out using pET20-FTH carrying a DNA encoding a human-derived ferritin H chain monomer as a template as well as the following primers: 5′-[…]-3′(SEQ ID NO: 15) and 5′-[…]-3′(SEQ ID NO: 16) in order to obtain a DNA encoding the human-derived ferritin H chain (HER2a-FTH) monomer in which a cancer recognition peptide (HER2a: MARSGL (SEQ ID NO: 14); M Houimel et al., Int. J. Cancer 92, 748-755. (2001) which is incorporated herein by reference in its entirety) is inserted and fused at the N-terminus of the ferritin monomer. The resulting PCR products were purified using Wizard DNA Clean-Up System (Promega Corporation), and then treated with restriction enzymes, Dpnl and Ndel (Takara Bio Inc.) for self-ligation in order to construct an expression plasmid (pET20-HER2a-FTH) carrying a gene encoding HER2a-FTH. […]\nDOX was mixed with 1 mL of 50 mM Tris-HCl buffer (pH 9) that contains each mutate ferritin at a final concentration of 1 mg/mL, to achieve a final concentration of 0.3 mg/L, and then the resulting solutions were left to stand at 50° C. for 60 minutes. […] The concentration of contained protein was determined using the protein assay CBB solution (Nacalai Tesque, Inc.) as well as bovine albumin as a standard. The DOX concentration was determined based on analysis of the absorbance at 480 nm."}, "[1]": {"conditions": "cited from earlier work"}, "[2]": {"conditions": "pH 9, 60° C., after 30 minutes, DOX 0.1 mg/mL"}}, "note": "Counter-ions that a name gives are not always drawn. Like-named read-outs stand apart in the source and are kept apart here.", "data": [{"smiles": "COc1cccc2c1C(=O)c1c(O)c3c(c(O)c1C2=O)C[C@@](O)(C(=O)CO)C[C@@H]3OC1CC(N)C(O)C(C)O1", "note": "(stereo partly drawn) [DOX, Doxorubicin hydrochloride]", "values": [{"measurement": "incorporation efficiency of the reagent", "setting": "FTH ferritin; pH 6 or less, 25° C., 60 minutes, DOX 0.1 mg/mL", "value": "≤ 0.5 ° (wt)"}, {"measurement": "incorporation efficiency of the reagent", "setting": "FTH ferritin; pH 9, 25° C., 60 minutes, DOX 0.1 mg/mL", "value": "≥ 1 % (wt)"}, {"measurement": "incorporation efficiency of the reagent", "setting": "FTH ferritin; pH 9, 60° C., 60 minutes, DOX 0.1 mg/mL", "value": "≥ 5 % (wt)"}, {"measurement": "number of molecules of DOX incorporated into one molecule of FTH ferritin", "setting": "FTH ferritin; pH 9, 60° C., 60 minutes, at maximum incorporation", "value": 165}, {"measurement": "incorporation efficiency of the reagent at the maximum", "setting": "FTH ferritin; pH 9, 60° C., 60 minutes, concentration ratio of FTH ferritin to DOX varied (10:3 or less)", "value": "16 % (wt)"}, {"measurement": "maximum incorporation efficiency of the reagent", "setting": "FTH ferritin; [2]", "value": "5 % (wt)"}, {"measurement": "number of molecules of DOX incorporated into one molecule of FTH ferritin", "setting": "FTH ferritin; [2]", "value": 50}, {"measurement": "rate of DOX incorporation", "setting": "FTH ferritin; pH 9, 60° C., until 30 minutes", "value": "1.7 mg-DOX/minute per gram of ferritin"}, {"measurement": "incorporation efficiency of the reagent", "setting": "HER2a-FTH ferritin", "value": "14.6 % (wt)"}, {"measurement": "pKa", "setting": "[1]; second pKa value", "value": 8.46}, {"measurement": "pKa", "setting": "[1]; single or first pKa value", "value": 7.34}, {"measurement": "pKa", "setting": "[1]; third printed pKa value", "value": 9.46}]}]}
